# Where two headings read alike, the source gives them in different places.
# Legend:
# [1] = Local and systemic gentamicin levels after single intramuscular injection in rabbits; type: in vivo, New Zealand White (NZW) rabbits; conditions: rabbit muscle
# Protocol: Prior to injection, a skin incision was made in order to expose the muscle. The site of injection was marked by a non-absorbable suture at the upper layer of the muscle. […] Following injection, the skin was closed using surgical clips. The procedure was performed under general anesthesia. Animals were clinically observed for up to 8 weeks post-dosing, if applicable.
# Tissue collection was performed by resecting the right paravertebral muscle, transversally slicing into ˜1 cm thick serial sections (total of 7 serial sections), when the injection site was located at the core center of the central section. […] At the injection site, one sample ( ? ) was taken.
# [2] = rat skin tissue
# Protocol: The site of injection was located at the right mid trunk area close to the spinal cord of the animals. The fur covering the flank and dorsal areas was removed by close clipping using an electric clipper up to 96 hours prior to dosing. Injections were performed using 18-19 G needle. The procedure was performed under general anesthesia. Blood samples were collected at 15 minutes, 30 minutes, 45 minutes, 1 hour, 1.5 hours, 2 hours, 4 hours, 6 hours, 8 hours, 24 hours, 48 hours, 72 hours, 1 week, 2 weeks, 3 weeks, 4 weeks, 6 weeks, and 8 weeks.
# Blood samples were processed by centrifugation (3,000 G for 15 minutes at room temperature). Following centrifugation, plasma was removed into plastic tubes, followed by freezing using liquid nitrogen to (−70)-(−80)° C. for subsequent analysis.
# Tissue collection was performed following removal of the dorsal trunk area by close clipping using an electrical clipper, if needed. The skin at the dorsal site of the animal was removed and pinned to a cork board. […] The injection site A is marked by a circular area of 1 cm in diameter (1×0.8 cm diameter sample). Circular strips B, C, and D each indicate 0.5 cm strips in width encircling circle (at least 4 samples were taken from each strip).
# Thereafter, the samples were injected into a LC-MS/MS system (3 μl for samples at a concentration range of 2.5-170 μg/ml and 20 μl for samples at a concentration range of 0.075-2.5 μg/ml). […] Thereafter, 20 μl of the samples were injected into a LC-MS/MS system.
# Sample concentrations were obtained by interpolation from the run defined calibration curve. The raw data was processed using AB SCIEX 1.5.1 software.
# [3] = parenteral administration, levels exceeded for prolonged periods of time; cited from earlier work
substance,measurement,setting,value
gentamicin,"local concentration of gentamicin, area B","[1]; area B of FIG. 4, 24 hours after single 0.2 ml IM injection of RA:SA (70:30) copolymer with 20 wt % gentamicin sulfate",46 µg/mL
same,"local concentration of gentamicin, area C","[1]; area C of FIG. 4, 24 hours after single 0.2 ml IM injection of RA:SA (70:30) copolymer with 20 wt % gentamicin sulfate",3 µg/mL
same,"local concentration of gentamicin, area D","[1]; area D of FIG. 4, 24 hours after single 0.2 ml IM injection of RA:SA (70:30) copolymer with 20 wt % gentamicin sulfate",6 µg/mL
same,"local concentration of gentamicin, area A","[1]; injection site, 24 hours after single 0.2 ml IM injection of RA:SA (70:30) copolymer with 20 wt % gentamicin sulfate",765 µg/mL
same,"local concentration of gentamicin, area A","[2]; injection site, 24 hours after single 0.2 ml SC injection of RA:SA (70:30) copolymer with 20 wt % gentamicin sulfate",362 µg/mL
same,"local concentration of gentamicin, area B","[2]; strip B of FIG. 8, 24 hours after single 0.2 ml SC injection of RA:SA (70:30) copolymer with 20 wt % gentamicin sulfate",218 µg/mL
same,"local concentration of gentamicin, area C","[2]; strip C of FIG. 8, 24 hours after single 0.2 ml SC injection of RA:SA (70:30) copolymer with 20 wt % gentamicin sulfate",43 µg/mL
same,"local concentration of gentamicin, area D","[2]; strip D of FIG. 8, 24 hours after single 0.2 ml SC injection of RA:SA (70:30) copolymer with 20 wt % gentamicin sulfate",31 µg/mL
same,systemic levels above which ototoxicity and nephrotoxicity are induced,[3],10 to 12 µg/mL

# — patent publication US11141488B2, “Compositions comprising biodegradable copolymers for prolonged local release of an antibiotic” (DEXCEL PHARMA TECHNOLOGIES LTD., priority 2017, dated 2021)
